Results from paper PMC10567728, “Targeted imaging of uPAR expression in vivo with cyclic AE105 variants” (Scientific Reports, 2023).
Where “and” joins values, the source holds several entries; their conditions need not be identical. Identical values can stand only once. Positions of bridges follow the written chain, without caps; N, C: chain ends. Non-standard residues stand in square brackets, D forms with d. Residues, ends and D or L forms follow the SMILES beside them. *: point of attachment. DOTA = O=C(O)CN1CCN(CC(=O)O)CCN(CC(=O)*)CCN(CC(=O)O)CC1; Cha = N[C@@H](CC1CCCCC1)C(=O)O

Experiments:
uPAR•uPA interaction = biological target: T1, uPAR•uPA interaction (Homo sapiens, UniProt Q03405); assay: SPR competition assay of the uPAR•uPA interaction; type: binding; conditions: for IC50: competition of uPAR•uPA interaction, 2 nM uPAR, 20 °C, n = 3
T1 construct: Recombinant human uPAR^1–283 was expressed; made in house; host or cells: Drosophila melanogaster S2 cells
T1 sequence (Q03405 23-305): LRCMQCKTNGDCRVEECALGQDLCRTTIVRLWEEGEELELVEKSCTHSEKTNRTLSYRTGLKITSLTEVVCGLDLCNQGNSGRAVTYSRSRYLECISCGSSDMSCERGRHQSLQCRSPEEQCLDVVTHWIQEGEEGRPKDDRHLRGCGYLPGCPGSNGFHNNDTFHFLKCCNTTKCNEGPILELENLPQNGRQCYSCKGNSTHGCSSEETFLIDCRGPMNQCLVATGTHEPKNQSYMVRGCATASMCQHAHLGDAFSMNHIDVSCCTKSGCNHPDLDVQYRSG
Description: The IC50-values of antagonistic peptides on the uPAR•uPA interaction were determined with SPR using a Biacore T200™ or Biacore 3000™ instruments (Cytiva) essentially as described[4],[56],[77]. In brief, we immobilized high levels of pro-uPA^S356A (0.1 pmol pro-uPA/mm^2) on a CM5 sensor chip via amine coupling. The experiments were conducted by injecting 2 nM uPAR in presence of a threefold dilution series of a given antagonistic peptide for 300 s with a flow rate of 50 µL/min at 20 °C. The high immobilization levels result in binding conditions that are entirely controlled by mass transport limitations (MTL). Accordingly, the observed association rates (vobs) are directly proportional to the concentrations of binding-active uPAR in solution. To determine the IC50, we also measured a standard curve of uPAR binding (a twofold dilution series of 0.06 to 2 nM uPAR, linear due to MTL). The running buffer was 10 mM HEPES, 150 mM NaCl, 3 mM EDTA, and 0.05% (v/v) surfactant P-20 at pH 7.4, and the regeneration buffer was 0.1 M acetic acid in 0.5 M NaCl.

uPAR [1] = biological target: T2, uPAR (Homo sapiens, UniProt Q03405); assay: SPR real-time binding kinetics, peptides in solution and immobilised uPAR; conditions: for kon: read-out: kon
T2 construct: Recombinant human uPAR^1–283 was expressed; made in house; host or cells: Drosophila melanogaster S2 cells
T2 sequence (Q03405 23-305): as above
Description: The real-time binding kinetics of uPAR•peptide interactions were measured with SPR using a Biacore T200™(Cytiva); essentially as described in[56],[77]. In brief, uPAR was covalently immobilised on a CM5 sensor chip via amine coupling resulting in a surface density of 1157–1581 RU (~ 33–44 fmol/mm^2). The binding kinetics for the peptides to immobilised uPAR were measured using a single cycle protocol. In this setup, peptides were injected as five serial two-fold dilutions with a contact time of 200 s. After the last analyte injection, the dissociation time was set to 1000 s. The sensor chip was regenerated with two consecutive injections of 0.1 M acetic acid in 0.5 M NaCl. All experiments were conducted at 20 °C with a flow rate of 50 µL/min in 10 mM HEPES, 150 mM NaCl, 3 mM EDTA, and 0.05% (v/v) surfactant P-20 at pH 7.4. The kinetic rate constants (kon and koff) were determined by non-linear regression fitting of the curves to the simple bimolecular interaction model (BiacoreT200 Evaluation™ 3.0 software).

uPAR [2] = biological target: T2, uPAR; assay: Nano-DSF thermal stability of uPAR•peptide complexes; conditions: for Tm (apparent melting temperature of uPAR•peptide complex): 15 µM uPAR, 30 µM peptide, PBS pH 7.4, n = 3; for decrease in apparent Tm on introduction of spacer: (4) vs (1), (6) vs (3)
Description: The thermal stability of the uPAR•peptide complexes was analyzed with Nano-DSF using a Prometheus NT.48™ (Nanotemper). uPAR (15 µM) was mixed with twofold excess of peptide (30 µM) in PBS pH 7.4 and incubated for 15 min at RT to ensure complex formation. Samples containing either 15 µM uPAR or 30 µM of each peptide were included as controls. The samples were loaded into standard capillaries and in triplicates. To unfold the proteins, the samples were exposed to an increasing temperature gradient from 20 to 95 °C with a ramping rate of 1 °C/min. The excitation power was set to 50% (Ex.280 nm) and the fluorescence emission collected at 330 nm and 350 nm. The melting temperatures of the complexes were determined in the PR.ThermControl software (Nanotemper) from the first derivative of the fluorescence ratio (350 nm/330 nm).

[3] = test system: uPAR expression in U87MG tumor-bearing mice; type: in vivo; conditions: [64Cu]Cu-DOTA peptides, PET scanning or ex vivo counting of resected organs
Description: Five weeks old female NMRI nude mice were purchased from Janvier (Le Genest-Saint-Isle, France) and housed in groups to acclimatize for a week upon arrival with light/dark period of 12/12 h and under controlled environmental conditions (temperature: 20–22 °C, relative humidity: 55%). Access to fresh water and standard pellet diet was provided ad libitum. Human glioblastoma cancer cell line U87MG (ATCC, Manassas, USA) was cultured in Dulbecco’s modified eagle medium (DMEM) supplemented with 10% fetal bovine serum and 1% penicillin–streptomycin at 37 °C and 5% CO2. Cells were harvested by trypsinization at a confluence of 70–90%. Mice were anesthetized (3–4% sevoflurane in 65% N2 and 35% O2) and ~ 4 × 10^6 U87MG cells resuspended in 100 μL PBS were injected subcutaneously into the right flank. Tumors were allowed to grow for 20 days. Tumor sizes were monitored using caliper measurements (Volume = 0.5 x (Length x Width^2)).
Tumor-bearing mice (tumor volumes (mean ± SD) of 221 ± 105 mm^3) were grouped (n = 6 per group) and anesthetized (3–4% sevoflurane in 65% N2 and 35% O2) prior to imaging. The four different [^64Cu]Cu–DOTA conjugated peptides were administered via tail vein injections of 5.4 ± 0.4 MBq corresponding to 118 ± 7 pmol (1b), 111 ± 4 pmol (8b), 92 ± 3 pmol (9b), and 75 ± 4 pmol (11b) (mean ± SD). Whole-body imaging consisting of a CT acquisition followed by a static PET acquisition was performed on an Inveon® small animal imaging system (Siemens Medical Systems, Malvern, PA, USA). PET/CT imaging was performed 1 h, 22 h, and 46 h post-injection (p.i.) of tracer with a 5 min, 10 min and 15 min PET scan, respectively. During scans the animals were placed on a heated bedding system to keep the body temperature stable. The PET acquisition was performed with an energy window of 350–650 keV and a time resolution of 6 ns, and data was corrected for dead time and decay. The CT scan consisted of 360 projections, with a tube voltage of 65 kV, a tube current of 500 μA and an exposure time of 400 ms per projection. Sinograms from PET scans were reconstructed using a 3-dimensional maximum a posteriori algorithm with correction for scatter and attenuation (CT-based). PET and CT images were co-registered and analyzed using Inveon Research Workplace software (Siemens Medical Solutions). The mean percentage of injected dose per grams (%ID/g) in different tissues was extracted by manually creating regions of interest (ROI) on fused PET/CT images.

uPAR [4] = conditions: read-out: KD of the uPA•uPAR interaction; cited from earlier work
[5] = single cycle SPR, immobilised uPAR, 20 °C
[6] = single cycle SPR, immobilised uPAR, 20 °C, 1:1 model
[7] = DOTA-conjugated peptides with spacer, compared to (4b)
[8] = [63Cu]-DOTA labelled peptides, single-cycle SPR

Row | Compound | IC50 (uPAR•uPA interaction) [nM] | koff (uPAR [1]; [5]) [s⁻¹] | Kd (uPAR [1]; [6]) [nM] | kon (uPAR [1]; [5]) [M⁻¹ s⁻¹] | Tm (apparent melting temperature of uPAR•peptide complex) (uPAR [2]) | also measured
1 | CC(C)C[C@@H]1NC(=O)[C@H](Cc2ccc(O)cc2)NC(=O)[C@H](NC(=O)[C@@H](CO)NC(=O)[C@H](Cc2ccccc2)NC(=O)[C@H](CC2CCCCC2)NC(=O)[C@H](CC(=O)O)NC(=O)CNC(=O)CNC(=O)[C@@H](CO)NC(=O)CNC(=O)[C@H](CCC(=O)O)NC(=O)[C@H](CCC(=O)O)NC(=O)CN2CCN(CC(=O)O)CCN(CC(=O)O)CCN(CC(=O)O)CC2)CSSC[C@@H](C(=O)O)NC(=O)[C@H](Cc2c[nH]c3ccccc23)NC1=O [6b] ({DOTA}-EEG[dS]GGD[Cha]F[dS][dC]YLWC-OH; disulfide 11-15) | 15.8 ± 0.4 | 0.00977 ± 1e-05 | 20.3 | 481000 ± 1000 | 61.3 ± 0.4 °C | increase in apparent Tm (uPAR [2]; [7]): 6–14 °C
2 | CC(C)C[C@H](NC(=O)[C@H](Cc1ccc(O)cc1)NC(=O)[C@@H](CCCNC(=N)N)NC(=O)[C@@H](CO)NC(=O)[C@H](Cc1ccccc1)NC(=O)[C@H](CC1CCCCC1)NC(=O)[C@H](CC(=O)O)NC(=O)CN1CCN(CC(=O)O)CCN(CC(=O)O)CCN(CC(=O)O)CC1)C(=O)N[C@@H](Cc1c[nH]c2ccccc12)C(=O)N[C@@H](CO)C(N)=O [8b] | 8.2 ± 0.1 | 0.002064 ± 2e-06 | 4.22 | 490000 ± 1000 | ~ 70 °C | tumor uptake and imaging contrast, (1b) compared with (8b) [3]: no significant differences; IC50 of DOTA-conjugated peptide compared to unconjugated peptide (uPAR•uPA interaction; (1b) vs (1), (8b) vs (8)): four to fivefold higher; Kd (uPAR [1]; [8]): 13.9 nM; koff (uPAR [1]; [8]): 0.00425 ± 1e-05 s⁻¹; reduction of affinity on DOTA-conjugation (uPAR [1]; real-time binding kinetics, vs unconjugated peptides): 8–11 fold; increase in apparent Tm (uPAR [2]; DOTA-conjugated peptides, compared to (1b)): approximately 11 °C
3 | CC(C)C[C@H](NC(=O)[C@H](Cc1ccc(O)cc1)NC(=O)[C@@H](CCCNC(=N)N)NC(=O)[C@@H](CO)NC(=O)[C@H](Cc1ccccc1)NC(=O)[C@H](CC1CCCCC1)NC(=O)[C@H](CC(=O)O)NC(=O)CNC(=O)CNC(=O)[C@@H](CO)NC(=O)CNC(=O)[C@H](CCC(=O)O)NC(=O)[C@H](CCC(=O)O)NC(=O)CN1CCN(CC(=O)O)CCN(CC(=O)O)CCN(CC(=O)O)CC1)C(=O)N[C@@H](Cc1c[nH]c2ccccc12)C(=O)N[C@@H](CO)C(N)=O [10b] ({DOTA}-EEG[dS]GGD[Cha]F[dS][dR]YLWS-NH2) | 4.8 ± 0.2 | 0.001367 ± 1e-06 | 3.18 | 429700 ± 400 | 66.2 ± 0.3 °C | increase in apparent Tm (uPAR [2]; [7]): 6–14 °C
4 | CC(C)C[C@H](NC(=O)[C@H](Cc1ccc(O)cc1)NC(=O)[C@@H](CCCNC(=N)N)NC(=O)[C@@H](CO)NC(=O)[C@H](Cc1ccccc1)NC(=O)[C@H](CC1CCCCC1)NC(=O)[C@H](CC(=O)O)NC(=O)CNC(=O)CNC(=O)[C@@H](CO)NC(=O)CNC(=O)[C@H](CCC(=O)O)NC(=O)[C@@H](N)CCC(=O)O)C(=O)N[C@@H](Cc1c[nH]c2ccccc12)C(=O)N[C@@H](CO)C(=O)O [compound 4] (H-EEG[dS]GGD[Cha]F[dS][dR]YLWS-OH; N-terminus assumed) | – | 0.00558 ± 1e-05 | – | 280000 ± 1000 | 55.2 °C and 55.2 ± 0.2 °C | fold increase in the IC50-value (uPAR•uPA interaction; compared to AE105 (1)): 2.7 fold; decrease in apparent Tm on introduction of spacer (uPAR [2]): 10 °C
5 | CC(C)C[C@@H]1NC(=O)[C@H](Cc2ccc(O)cc2)NC(=O)[C@H](NC(=O)[C@@H](CO)NC(=O)[C@H](Cc2ccccc2)NC(=O)[C@H](CC2CCCCC2)NC(=O)[C@H](CC(=O)O)NC(=O)CNC(=O)CNC(=O)[C@@H](CO)NC(=O)CNC(=O)[C@H](CCC(=O)O)NC(=O)[C@@H](N)CCC(=O)O)CSSC[C@@H](C(=O)O)NC(=O)[C@H](Cc2c[nH]c3ccccc23)NC1=O [compound 6] (H-EEG[dS]GGD[Cha]F[dS][dC]YLWC-OH; disulfide 11-15; N-terminus assumed) | – | 0.01033 ± 3e-05 | – | 611000 ± 3000 | 60.6 °C and 60.6 ± 0.7 °C | increase in potency (uPAR•uPA interaction; compared to (4)): 1.4 fold; increase in potency (uPAR•uPA interaction; compared to (5)): 11 fold; association rate constant (kon) compared to (4) (uPAR [1]): improved ~ twofold; dissociation rate constant (koff) compared to (4) (uPAR [1]): ~ twofold impairment; decrease in apparent Tm on introduction of spacer (uPAR [2]): 10 °C; increase in thermal stability (apparent Tm) (uPAR [2]; disulfide-bonded peptide compared to linear peptide (4)): 5 °C
6 | CC(C)C[C@H](NC(=O)[C@H](Cc1ccc(O)cc1)NC(=O)[C@@H](CCCNC(=N)N)NC(=O)[C@@H](CO)NC(=O)[C@H](Cc1ccccc1)NC(=O)[C@H](CC1CCCCC1)NC(=O)[C@H](CC(=O)O)NC(=O)CNC(=O)CNC(=O)[C@@H](CO)NC(=O)CNC(=O)[C@H](CCC(=O)O)NC(=O)[C@@H](N)CCC(=O)O)C(=O)N[C@@H](Cc1c[nH]c2ccccc12)C(=O)N[C@@H](CO)C(N)=O [compound 10] (H-EEG[dS]GGD[Cha]F[dS][dR]YLWS-NH2; N-terminus assumed) | – | 0.001497 ± 2e-06 | – | 595000 ± 1000 | ~ 65 °C | fold increase in potency on C-terminal amidation (uPAR•uPA interaction; (8) vs (1) and (10) vs (4)): 5.6 fold
7 | urokinase-type plasminogen activator [uPA] | – | – | – | – | – | Kd (uPAR [4]): 0.02 nM
